In PubChem BioAssay AID623999 (Broad Institute, 2012):
Inconclusive results are not listed. Activity calls are given as the source filed them.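 The calls were made as follows: active = inhibition in every test run, with half-maximal concentration at most twice the top tested dose; inconclusive = the separate test runs disagree on their calls; inactive = every test run inactive, including opposite effects.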

Molecular target: Cyclin-dependent kinase 5 (Homo sapiens) + Cyclin-dependent kinase 5 activator 1 (Homo sapiens) (UniProt Q00535+Q15078)
Experiment: CDK5-p25 kinase inhibition, dose response, selectivity assay for GSK3beta inhibitor project, biochemical, ADP-Glo luminescence, dry powder samples (AID 623999)
Conditions: histone H1 peptide; for activity change, negative = inhibition: at 46 µM (top of the series)

Sequence of Cyclin-dependent kinase 5 (Homo sapiens) + Cyclin-dependent kinase 5 activator 1 (Homo sapiens) (Q00535 whole entry, looked up): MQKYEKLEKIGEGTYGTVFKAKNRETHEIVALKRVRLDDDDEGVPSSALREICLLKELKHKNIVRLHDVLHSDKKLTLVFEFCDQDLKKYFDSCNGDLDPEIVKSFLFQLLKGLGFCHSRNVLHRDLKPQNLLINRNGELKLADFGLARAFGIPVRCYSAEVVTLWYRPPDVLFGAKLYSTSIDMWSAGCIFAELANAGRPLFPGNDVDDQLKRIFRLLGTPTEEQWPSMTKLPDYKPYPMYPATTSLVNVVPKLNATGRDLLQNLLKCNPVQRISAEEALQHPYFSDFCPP
Sequence of Cyclin-dependent kinase 5 (Homo sapiens) + Cyclin-dependent kinase 5 activator 1 (Homo sapiens) (Q15078 whole entry, looked up): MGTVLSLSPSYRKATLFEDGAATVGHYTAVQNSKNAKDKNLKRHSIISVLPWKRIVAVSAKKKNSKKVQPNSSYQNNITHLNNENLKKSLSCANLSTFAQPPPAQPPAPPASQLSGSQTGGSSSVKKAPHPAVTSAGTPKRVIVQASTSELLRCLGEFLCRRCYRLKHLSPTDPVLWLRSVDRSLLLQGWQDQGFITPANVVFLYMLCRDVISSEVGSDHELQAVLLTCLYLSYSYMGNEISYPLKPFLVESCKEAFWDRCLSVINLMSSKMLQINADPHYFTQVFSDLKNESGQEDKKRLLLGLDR

CC1(C)CC(=O)C2=C(C1)Nc1n[nH]c(C(F)(F)F)c1C2c1ccc(F)cc1C(F)(F)F (centres undefined)
AC50: 22.4 µM

O/N=C/c1cn(-c2ccccc2)nc1-c1ccc(Cl)cc1
AC50: 25.4 µM

CC1(C)CC(=O)C2=C(C1)Nc1n[nH]c(C(F)(F)F)c1C2c1cc(F)ccc1C(F)(F)F (centres undefined)
AC50: 8.29 µM

Cc1[nH]nc2c1C(c1cccc(C#N)c1)C1=C(CC(C)(C)CC1=O)N2 (centres undefined)
AC50: 6.81 µM

O/N=C/c1cn(-c2ccccc2)nc1-c1ccc(F)cc1
activity change, negative = inhibition: inactive

CN(C)Cc1cn(-c2ccccc2)nc1-c1ccccc1
activity change, negative = inhibition: inactive

Cc1ccccc1C1C2=C(CC(C)(C)CC2=O)Nc2n[nH]c(C)c21 (centres undefined)
AC50: 16.5 µM

COc1ccccc1C1C2=C(CCC(C)(C)C2=O)Nc2n[nH]c(C)c21 (centres undefined)
AC50: 10.1 µM

CNC(=O)c1cn(-c2ccccc2)nc1-c1ccc(OC)cc1
activity change, negative = inhibition: inactive

COc1ccccc1[C@H]1C2=C(CC(C)(C)CC2=O)Nc2n[nH]c(C(F)(F)F)c21
activity change, negative = inhibition: inactive

Cc1[nH]nc2c1C(C1CCCCC1)C1=C(CC(C)(C)CC1=O)N2 (centres undefined)
activity change, negative = inhibition: inactive

CCc1[nH]nc2c1C(c1ccccc1OC)C1=C(CC(C)(C)CC1=O)N2 (centres undefined)
AC50: 2.22 µM

COc1ccc(-c2nn(-c3ccccc3)cc2CO)cc1
activity change, negative = inhibition: inactive

CSc1ccccc1C1C2=C(CC(C)(C)CC2=O)Nc2n[nH]c(C)c21 (centres undefined)
AC50: 3.98 µM

CC1(C)CC(=O)C2=C(C1)Nc1n[nH]c(C(F)(F)F)c1C2c1c(F)cccc1F (centres undefined)
AC50: 43 µM

CC(C)COc1ccc(-c2nn(-c3ccccc3)cc2/C=N/O)cc1
activity change, negative = inhibition: inactive

CC1(C)CC(=O)/C(=C\c2ccccc2C(F)(F)F)C(=Nc2cc(C(F)(F)F)[nH]n2)C1
activity change, negative = inhibition: inactive

Cc1[nH]nc2c1C(c1cccc(C(F)(F)F)c1)C1=C(CC(C)(C)CC1=O)N2 (centres undefined)
AC50: 10.9 µM

COc1ccccc1C1C2=C(CC3(CCCCC3)CC2=O)Nc2n[nH]c(C)c21 (centres undefined)
AC50: 5.88 µM

CC1(C)CC(=O)C2=C(C1)Nc1n[nH]c(C(F)(F)F)c1C2c1cc(F)ccc1OC(F)(F)F (centres undefined)
AC50: 32.6 µM

CC(C)c1ccc(-c2nn(-c3ccccc3)cc2/C=N/O)cc1
activity change, negative = inhibition: inactive

COc1ccccc1C1C2=C(CCCC2=O)Nc2n[nH]c(C)c21 (centres undefined)
AC50: 15.1 µM

Cc1[nH]nc2c1C(C)(c1ccccc1)C1=C(CC(C)(C)CC1=O)N2 (centres undefined)
AC50: 14.5 µM

COc1ccc(-c2nn(-c3ccccc3)cc2C(=O)N(C)C)cc1
activity change, negative = inhibition: inactive

Cc1[nH]nc2c1[C@@H](c1ccccc1C(F)(F)F)C1=C(CC(C)(C)CC1=O)N2
AC50: 0.461 µM

O/N=C/c1cn(-c2ccccc2)nc1-c1ccccc1
activity change, negative = inhibition: inactive

Cc1[nH]nc2c1C(c1ccccc1C(F)(F)F)C1=C(CC(C)(C)CC1=O)N2 (centres undefined)
AC50: 0.841 µM

CC1(C)CC(=O)C2=C(C1)Nc1n[nH]c(C(F)(F)F)c1C2c1ccccc1 (centres undefined)
AC50: 22.2 µM

Cc1[nH]nc2c1C(C)C1=C(CC(C)(C)CC1=O)N2 (centres undefined)
AC50: 27.8 µM

Cc1[nH]nc2c1C(c1cccc3nonc13)C1=C(CC(C)(C)CC1=O)N2 (centres undefined)
AC50: 2.57 µM

COc1ccccc1C1C(C(C)=O)=C(C)Nc2n[nH]c(C)c21 (centres undefined)
AC50: 9.55 µM

Cc1cccc(C2C3=C(CC(C)(C)CC3=O)Nc3n[nH]c(C)c32)c1 (centres undefined)
AC50: 39.7 µM

COc1ccccc1/C=C1\C(=O)CC(C)(C)CC1=Nc1cc(C(F)(F)F)[nH]n1
activity change, negative = inhibition: inactive

COc1ccccc1C1C2=C(CC(C)(C)CC2=O)Nc2onc(C)c21 (centres undefined)
activity change, negative = inhibition: inactive

CC1(C)CC(=O)C2=C(C1)Nc1n[nH]c(C(F)(F)F)c1C2c1cc(F)ccc1F (centres undefined)
AC50: 47.4 µM

Cc1[nH]nc2c1C(c1ccc(C#N)cc1)C1=C(CC(C)(C)CC1=O)N2 (centres undefined)
activity change, negative = inhibition: inactive

Cc1[nH]nc2c1C(c1ccccc1Cl)C1=C(CC(C)(C)CC1=O)N2 (centres undefined)
AC50: 5.1 µM

Cc1[nH]nc2c1C(c1ccccc1C#N)C1=C(CC(C)(C)CC1=O)N2 (centres undefined)
AC50: 4.04 µM

COc1ccccc1C1C2=C(CC(C)(C)CC2=O)Nc2n[nH]c(C(C)(C)C)c21 (centres undefined)
activity change, negative = inhibition: inactive

COc1ccccc1C1C2=C(CC(C)(C)CC2=O)Nc2[nH]ncc21 (centres undefined)
AC50: 5.82 µM

CC1(C)CC(=O)/C(=C\c2cccc(F)c2C(F)(F)F)C(=Nc2cc(C(F)(F)F)[nH]n2)C1
activity change, negative = inhibition: inactive

Cc1[nH]nc2c1C(c1ccc(C(F)(F)F)cc1)C1=C(CC(C)(C)CC1=O)N2 (centres undefined)
activity change, negative = inhibition: inactive

COc1ccccc1-c1c2c(nc3n[nH]c(C)c13)CCC2=O
AC50: 34.6 µM

COc1ccccc1C1C2=C(CC(C)(C)CC2=O)Nc2n[nH]c(C(C)C)c21 (centres undefined)
AC50: 4.84 µM

CC1(C)CC(=O)C2=C(C1)Nc1n[nH]c(C(F)(F)F)c1C2c1ccccc1F (centres undefined)
AC50: 47.2 µM

COc1ccc(-c2nn(-c3ccccc3)cc2C(=O)O)cc1
activity change, negative = inhibition: inactive

Cc1[nH]nc2nc3c(cc12)C(=O)CC(C)(C)C3
activity change, negative = inhibition: inactive

COc1cccc(-c2nn(-c3ccccc3)cc2/C=N/O)c1
activity change, negative = inhibition: inactive

O=S(=O)(Nc1ccccn1)c1ccc(N=Cc2c(O)[nH]c3ccc4ncsc4c23)cc1
AC50: 0.418 µM
